Results as given in patent publication US9283213B2, “Dihydropyridin-2(1H)-one compounds as S-nitrosoglutathione reductase inhibitors and neurokinin-3 receptor antagonists” (N30 Pharmaceuticals, Inc., priority 2010, dated 2016).

How the values were obtained:
GSNOR = target: T1, GSNOR (Homo sapiens, UniProt P11766); assay: GSNOR assay (inhibition of GSNOR activity in vitro); format: biochemical; conditions: 0.240 mM GSNO, 0.300 mM NADH, pH 7.4, 25° C.; read-out: GSNOR inhibitor IC50
T1 construct: made in house; host or cells: E. coli
T1 sequence (P11766 whole entry): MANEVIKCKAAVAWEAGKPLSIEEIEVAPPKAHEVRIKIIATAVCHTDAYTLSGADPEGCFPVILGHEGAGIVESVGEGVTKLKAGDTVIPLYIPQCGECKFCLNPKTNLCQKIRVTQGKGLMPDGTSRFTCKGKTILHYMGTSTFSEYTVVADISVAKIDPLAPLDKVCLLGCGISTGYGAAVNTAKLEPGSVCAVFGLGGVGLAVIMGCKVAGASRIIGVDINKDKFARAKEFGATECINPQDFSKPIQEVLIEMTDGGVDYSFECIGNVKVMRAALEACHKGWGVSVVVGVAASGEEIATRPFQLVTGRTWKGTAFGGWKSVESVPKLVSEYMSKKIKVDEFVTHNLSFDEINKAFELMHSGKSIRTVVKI
Method: Various compounds were tested in vitro for their ability to inhibit GSNOR activity.
Pre-cultures were grown from stabs of a GSNOR glycerol stock in 2XYT media containing 100 ug/ml ampicillin after an overnight incubation at 37° C. Cells were then added to fresh 2XYT (4 L) containing ampicillin and grown to an OD (A600) of 0.6-0.9 at 37° C. before induction. GSNOR expression was induced with 0.1% arabinose in an overnight incubation at 20° C.
E. coli cell paste was lysed by nitrogen cavitation and the clarified lysate purified by Ni affinity chromatography on an AKTA FPLC (Amersham Pharmacia). The column was eluted in 20 mM Tris pH 8.0/250 mM NaCl with a 0-500 mM imidazole gradient. […] GSNOR was recovered in the flowthrough fraction and for crystallography is further purified by Q-Sepharose and Heparin flowthrough chromatography in 20 mM Tris pH 8.0, 1 mM DTT, 10 uM ZnSO4.
GSNO and Enzyme/NADH Solutions are made up fresh each day. The Solutions are filtered and allowed to warm to room temperature. GSNO Solution: 100 mM NaPO4 (pH 7.4), 0.480 mM GSNO. 396 μL of GSNO Solution is added to a cuvette followed by 8 μL of test compound in DMSO (or DMSO only for full reaction control) and mixed with the pipette tip. Compounds to be tested are made up at a stock concentration of 10 mM in 100% DMSO. 2 fold serial dilutions are done in 100% DMSO. 8 μL of each dilution are added to an assay so that the final concentration of DMSO in the assay is 1%. The concentrations of compounds tested range from 100 to 0.003 μM. Enzyme/NADH Solution: 100 mM NaPO4 (pH 7.4), 0.600 mM NADH, 1.0 μg/mL GSNO Reductase. 396 μL of the Enzyme/NADH Solution is added to the cuvette to start the reaction. The cuvette is placed in the Cary 3E UV/Visible Spectrophotometer and the change in 340 nm absorbance/min at 25° C. is recorded for 3 minutes. The assays are done in triplicate for each compound concentration. IC50's for each compound are calculated using the standard curve analysis in the Enzyme Kinetics Module of SigmaPlot.
Final assay conditions: 100 mM NaPO4, pH 7.4, 0.240 mM GSNO, 0.300 mM NADH, 0.5 μg/mL GSNO Reductase and 1% DMSO. Final volume: 800 μL/cuvette.

[1] = Mouse pharmacokinetic (PK) study; format: in vivo; conditions: plasma, male BALB/c mice, PO 10 mg/kg vs IV 2 mg/kg, read-out: oral bioavailability (% F)
Source text: The mouse is used to determine the pharmacokinetics of compounds of the invention. This species is widely used to assess the bioavailability of compounds by administering both oral (PO) and intravenous (IV) test articles. Efficacy of the compounds of the invention are compared by assessing plasma exposure in male BALB/c mice either via IV or PO administration at the times of peak activity.
Compounds of the invention are reconstituted in a phosphate buffered saline (PBS)/10% Solutol (HS 15) clear solution resulting in a concentration of 0.2 mg/mL and administered to mice (2 mg/kg) as a single IV dose. Animals dosed via the lateral tail vein. […] The plasma is transferred into labeled polypropylene tubes and frozen at −70° C. until analyzed by LC/MS/MS.
The compounds of the invention are reconstituted in 40% Propylene Glycol/40% Propylene Carbonate/20% of a 5% Sucrose clear solution resulting in a concentration of 2 mg/mL and administered to mice (10 mg/kg) as a single oral dose via gavage. […] The plasma is transferred into labeled polypropylene tubes and frozen at −70° C. until analyzed by LC/MS/MS.
Plasma samples at each timepoint were analyzed using a LC-MS/MS with a lower limit of quantification (LLOQ) of 1 ng/mL. […]
In addition to the above PK parameters, bioavailability (% F) was calculated.

With `O=C1CC(c2ccc(C(=O)O)c(O)c2)C(c2ccccc2)=C(c2ccccc2)N1` (centres unmarked) [Example 6, 2-hydroxy-4-(2-oxo-5,6-diphenyl-1,2,3,4-tetrahydropyridin-4-yl)benzoic acid] the IC50 (GSNOR) was < 0.1 µM and the bioavailability [1] was 22%.
